Reference: the supplement of paper PMC10307832

What was measured:
Assay in all cases: relative viability (nuclei count vs DMSO), 5 days (fraction); higher = more cells survive
Afatinib + OSI-027 = compound: CN(C)C/C=C/C(=O)Nc1cc2c(Nc3ccc(F)c(Cl)c3)ncnc2cc1O[C@H]1CCOC1 [Afatinib] + COc1cccc2cc(-c3nc([C@H]4CC[C@H](C(=O)O)CC4)n4ncnc(N)c34)[nH]c12 [OSI-027] (partner 0.5 µM)
How it was run: (§1)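 Nuclei were stained with Hoechst during a one-step fixation (final 0.05% Triton X-100, 1% formaldehyde, 1 ug/ml Hoechst) carried out 5 days after dosing, then counted on 4× images. The cells, lung cancer lines in 1536-well plates, had been dosed by pin tool the day after seeding with one drug alone or a fixed anchor-drug dose plus five library-drug doses (not always all listed) in √10 steps. Relative viability is the nuclei count in treated wells divided by that in vehicle wells, and each value is the median of duplicate plates.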

Afatinib + Lapatinib = compound: CN(C)C/C=C/C(=O)Nc1cc2c(Nc3ccc(F)c(Cl)c3)ncnc2cc1O[C@H]1CCOC1 [Afatinib] + CS(=O)(=O)CCNCc1ccc(-c2ccc3ncnc(Nc4ccc(OCc5cccc(F)c5)c(Cl)c4)c3c2)o1 [Lapatinib] (partner 2 µM)
How it was run: as §1

Afatinib + Linsitinib = compound: CN(C)C/C=C/C(=O)Nc1cc2c(Nc3ccc(F)c(Cl)c3)ncnc2cc1O[C@H]1CCOC1 [Afatinib] + C[C@]1(O)C[C@@H](c2nc(-c3ccc4ccc(-c5ccccc5)nc4c3)c3c(N)nccn32)C1 [Linsitinib] (partner 1 µM)
How it was run: as §1

Afatinib + Alpelisib = compound: CN(C)C/C=C/C(=O)Nc1cc2c(Nc3ccc(F)c(Cl)c3)ncnc2cc1O[C@H]1CCOC1 [Afatinib] + Cc1nc(NC(=O)N2CCC[C@H]2C(N)=O)sc1-c1ccnc(C(C)(C)C(F)(F)F)c1 [Alpelisib] (partner 2 µM)
How it was run: as §1

Cell Line	relative viability (Afatinib + OSI-027; first compound 0.005 µM)	relative viability (Afatinib + OSI-027; first compound 0.01581 µM)	relative viability (Afatinib + OSI-027; first compound 0.05 µM)	relative viability (Afatinib + OSI-027; first compound 0.1581 µM)	relative viability (Afatinib + OSI-027; first compound 0.5 µM)	relative viability (Afatinib + Lapatinib; first compound 0.005 µM)	relative viability (Afatinib + Lapatinib; first compound 0.01581 µM)	relative viability (Afatinib + Lapatinib; first compound 0.05 µM)	relative viability (Afatinib + Lapatinib; first compound 0.1581 µM)	relative viability (Afatinib + Lapatinib; first compound 0.5 µM)	relative viability (Afatinib + Linsitinib; first compound 0.005 µM)	relative viability (Afatinib + Linsitinib; first compound 0.01581 µM)	relative viability (Afatinib + Linsitinib; first compound 0.05 µM)	relative viability (Afatinib + Linsitinib; first compound 0.1581 µM)	relative viability (Afatinib + Linsitinib; first compound 0.5 µM)	relative viability (Afatinib + Alpelisib; first compound 0.005 µM)	relative viability (Afatinib + Alpelisib; first compound 0.01581 µM)	relative viability (Afatinib + Alpelisib; first compound 0.05 µM)	relative viability (Afatinib + Alpelisib; first compound 0.1581 µM)	relative viability (Afatinib + Alpelisib; first compound 0.5 µM)
HCC-44	0.588	0.446	0.521	0.542	0.431	1.09	1.03	0.953	0.97	1.02	0.63	0.659	0.702	0.593	0.669	0.803	0.854	0.727	0.728	0.872
HCC-78	0.443	0.326	0.331	0.317	0.283	0.838	0.661	0.844	0.659	0.883	0.53	0.482	0.436	0.413	0.395	0.373	0.345	0.273	0.228	0.217
HCC-366	0.947	0.965	0.969	0.824	0.788	1.03	1.06	1.03	1.05	1.02	0.764	0.669	0.56	0.541	0.618	0.375	0.423	0.41	0.308	0.485
HCC-827	0.159	0.122	0.153	0.153	0.141	0.0458	0.174	0.186	0.186	0.198	0.202	0.163	0.18	0.172	0.176	0.172	0.157	0.183	0.17	0.184
HOP-62	0.947	0.835	0.826	0.933	0.827	1.12	1.12	1.11	1.03	1.09	1.03	1.13	1.2	1.03	1.04	0.977	0.599	1.14	1.08	0.689
IA-LM	–	–	–	–	–	0.935	0.867	0.753	0.828	0.708	0.67	0.713	0.502	0.571	0.601	0.653	0.658	0.691	0.693	0.797
LC-2-ad	0.871	0.67	0.823	0.575	0.622	1.07	0.991	1.07	0.961	0.925	0.935	0.817	0.794	0.696	0.682	0.892	0.441	0.819	0.687	0.784
LCLC-97TM1	0.561	0.502	0.629	0.43	0.457	1.11	0.837	1.11	0.688	0.568	0.176	0.179	0.167	0.156	0.205	0.175	0.286	0.313	0.184	0.211
LCLC-103H	0.48	0.46	0.54	0.482	0.479	–	–	–	–	–	1.09	0.943	1.02	0.99	0.99	0.806	1.09	0.997	0.939	1
LK-2	0.213	0.188	0.194	0.156	0.216	1.13	0.787	0.846	0.851	1.01	0.6	0.589	0.742	0.478	0.666	1.34	–	1.04	1.12	1.12
LOU-NH91	0.491	0.404	0.477	0.4	0.518	0.76	0.754	0.806	0.736	0.683	0.527	0.551	0.58	0.534	0.591	0.494	0.492	0.537	0.501	0.523
LU99A	0.294	0.297	0.295	0.287	0.292	1.08	1.07	1.02	0.979	0.871	0.509	0.562	0.488	0.453	0.477	0.557	0.468	0.438	0.452	0.489
NCI-H441	0.677	0.582	0.499	0.481	0.426	–	–	–	–	–	0.529	0.523	0.516	0.503	0.425	0.831	0.763	0.751	0.581	0.626
NCI-H522	0.723	0.594	0.631	0.544	0.557	–	–	–	–	–	–	–	–	–	–	–	–	–	–	–
NCI-H1299	–	–	–	–	–	0.98	0.946	0.973	0.969	0.96	0.978	0.951	0.987	1.06	0.97	1.05	1.04	1.12	1.08	1.04
NCI-H1648	0.253	0.266	0.298	0.219	0.27	–	–	–	–	–	–	–	–	–	–	–	–	–	–	–
NCI-H1650	0.476	–	0.557	0.439	0.397	0.903	–	1.09	0.772	0.598	–	–	–	–	–	–	–	–	–	–
NCI-H1703	–	–	–	–	–	1.76	1.02	1.08	0.921	0.753	0.49	–	0.651	0.608	0.585	0.313	0.322	0.286	0.278	0.314
NCI-H2170	0.67	0.5	0.293	0.192	0.191	0.297	0.283	0.268	0.269	0.315	–	–	–	–	–	0.571	0.421	0.314	0.207	0.233
NCI-H2342	0.669	0.539	0.546	0.558	0.485	–	–	–	–	–	–	–	–	–	–	–	–	–	–	–
SW 900	0.668	0.395	0.605	0.639	0.347	–	–	–	–	–	–	–	–	–	–	–	–	–	–	–
